Counter-ions that a name gives are not always drawn.

The text below walks through data of patent publication US20220324865A1 (Bayer Aktiengesellschaft, priority 2018, published 2022).

The target of this assay is T1, human EP3 receptor (Homo sapiens, UniProt P43115).
T1 construct: expressed in transfected cells; host or cells: CHO K1 (Chinese Hamster Ovary), stably co-transfected with Galpha16 and mitochondrial clytin
T1 sequence (P43115 1-390): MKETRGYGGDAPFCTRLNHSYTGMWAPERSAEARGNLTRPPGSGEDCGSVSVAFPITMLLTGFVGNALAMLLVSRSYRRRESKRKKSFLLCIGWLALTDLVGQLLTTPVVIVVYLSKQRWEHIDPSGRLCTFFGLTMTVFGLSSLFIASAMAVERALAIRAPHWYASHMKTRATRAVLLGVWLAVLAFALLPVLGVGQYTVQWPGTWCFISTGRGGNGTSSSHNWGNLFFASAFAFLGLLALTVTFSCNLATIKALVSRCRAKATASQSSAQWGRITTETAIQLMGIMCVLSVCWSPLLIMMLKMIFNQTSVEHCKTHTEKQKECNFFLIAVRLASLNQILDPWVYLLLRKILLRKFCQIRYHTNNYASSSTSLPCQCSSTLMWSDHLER
In words: Cellular in vitro assay for determining EP3 receptor activity (human EP3 cell line, sulprostone-stimulated calcium luminescence). In kind it is cell-based. The note with it: CHO cells expressing human EP3 and mitochondrial Clytin; antagonist mode, sulprostone at EC50; read-out: EP3 CHO mtCLY ANTAG IC50. In short, it runs like this:
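CHO K1 cells stably expressing human EP3 with Gα16 and mitochondrial Clytin, loaded overnight with coelenterazine. Compounds added 10 min before sulprostone at its EC50; antagonism read immediately as reduced calcium-driven luminescence, quadruplicate points.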
In the case of `COc1ccc2c(c1)OC(C)(C)CC2NC(=O)c1nn2cc(-c3cnc4cccc(C)c4c3)[nH]c(=O)c2c1C(C)C` (stereo not shown) [Example 4-79, 3-Isopropyl-N-(7-methoxy-2,2-dimethyl-3,4-dihydro-2-chromen-4-yl)-6-(5-methylquinolin-3-yl)-4-oxo-4,5-dihydropyrazolo[1,5-a]pyrazine-2-carboxamide], the half-maximal inhibitory concentration (IC50) was found to be 7.6 nM.
In the case of `CC(C)(O)[C@@H](NC(=O)c1nn2cc(-c3ccc4ccccc4c3)[nH]c(=O)c2c1C(F)(F)F)c1ccc(F)cc1` [Example 1-19, N-[(1S)-1-(4-Fluorophenyl)-2-hydroxy-2-methylpropyl]-6-(naphthalen-2-yl)-4-oxo-3-(trifluoromethyl)-4,5-dihydropyrazolo[1,5-a]pyrazine-2-carboxamide] it was 0.705 nM.
For the compound `CN1CCC(NC(=O)c2nn3cc(-c4ccc5ccccc5c4)[nH]c(=O)c3c2C(F)(F)F)(c2ccc(F)cc2)CC1` [Example 1-116, N-[4-(4-Fluorophenyl)-1-methylpiperidin-4-yl]-6-(naphthalen-2-yl)-4-oxo-3-(trifluoromethyl)-4,5-dihydropyrazolo[1,5-a]pyrazine-2-carboxamide], the IC50 amounted to 9.55 nM.
In the case of `Cc1c(C(=O)NC(C)c2ccc(S(C)(=O)=O)cc2)nn2c(C)c(-c3ccc4ccccc4c3)[nH]c(=O)c12` (stereo not shown) [Example 3-23, 3,7-Dimethyl-N-[1-(4-methylsulfonylphenyl)ethyl]-6-(2-naphthyl)-4-oxo-5H-pyrazolo[1,5-a]pyrazine-2-carboxamide] it was 3.2 nM; in that of `Cc1ccc(-c2cn3nc(C(=O)N[C@@H](C)CO)c(C4CCC4)c3c(=O)[nH]2)cc1F` [6-576], 3.75 nM.
In the case of `Cc1ccc(-c2cn3nc(C(=O)N[C@H](CCO)c4ccccc4)cc3c(=O)[nH]2)cc1C` [Example 1-14, 6-(3,4-Dimethylphenyl)-N-[(1R)-3-hydroxy-1-phenylpropyl]-4-oxo-4,5-dihydropyrazolo[1,5-a]-pyrazine-2-carboxamide] it was 0.14 nM.
On to `Cc1ccc(-c2cn3nc(C(=O)N[C@H](CN4CC[C@@H](F)C4)c4ccccc4)cc3c(=O)[nH]2)cc1F` [6-637], for which the IC50 was 3.6 nM.
In the case of `Cc1ccc(-c2cn3nc(C(=O)N[C@@H](c4ccc(F)cc4)C(C)(C)O)c(C4CC4(F)F)c3c(=O)[nH]2)cc1Cl` (stereo partly shown) [6-563] it was 2.9 nM; in that of `Cc1ccc(-c2cn3nc(C(=O)NC4(c5ccc(F)cc5)CN(C)C4)c(C4CC4)c3c(=O)[nH]2)cc1C` [Example 1-36, 3-Cyclopropyl-6-(3,4-dimethylphenyl)-N-[3-(4-fluorophenyl)-1-methylazetidin-3-yl]-4-oxo-4,5-dihydropyrazolo[1,5-a]pyrazine-2-carboxamide], 2.19 nM.
For `Cc1cc(-c2cn3nc(C(=O)NC(CO)C(F)(F)F)c(C4CC4)c3c(=O)[nH]2)ccc1Cl` (single isomer, unassigned) [6-308], the 50% inhibitory concentration (IC50) stood at 2.55 nM.
For `C[C@H](NC(=O)c1nn2cc(-c3ccc(Cl)c(Cl)c3)[nH]c(=O)c2c1C1CCC1)C1CC1` [6-569] the value was 1.45 nM.
In the case of `[N-]=[N+]=NC[C@H](NC(=O)c1cc2c(=O)[nH]c(-c3ccc4ccccc4c3)cn2n1)c1ccccc1` [6-59] it was 4.2 nM; in that of `N#Cc1c(C(=O)N[C@@H]2CCCc3ccccc32)nn2cc(-c3ccc4ccccc4c3)[nH]c(=O)c12` [Example 3-48, 3-Cyano-6-(naphthalen-2-yl)-4-oxo-N-[(7R)-1,2,3,4-tetrahydronaphthalen-1-yl]-4,5-dihydropyrazolo[1,5-a]pyrazine-2-carboxamide], 5.5 nM.
For `C[C@@H](NC(=O)c1nn2cc(-c3ccc4ccccc4c3)[nH]c(=O)c2c1C#N)c1ccc(F)cc1` [6-68] the value was 2.35 nM; for `Cc1cc(-c2cn3nc(C(=O)N[C@@H](c4ccc(F)cc4)C(C)(C)O)c(C(F)(F)F)c3c(=O)[nH]2)ccc1Cl` [Example 1-166, 6-(4-Chloro-3-methylphenyl)-N-[(1S)-1-(4-fluorophenyl)-2-hydroxy-2-methylpropyl]-4-oxo-3-(trifluoromethyl)-4,5-dihydropyrazolo[1,5-a]pyrazine-2-carboxamide], 3.15 nM.
Take `O=C(NC(CCn1cncn1)c1ccccc1)c1cc2c(=O)[nH]c(-c3ccc4ccccc4c3)cn2n1` (stereo not shown) [6-48]: the half-maximal inhibitory concentration (IC50) is 5.7 nM.
For `C[C@@H](NC(=O)c1cc2c(=O)[nH]c(-c3ccc4c(c3)N(C)CCO4)cn2n1)c1ccc(F)cc1` [Example 1-102, N-[(1R)-1-(4-Fluorophenyl)ethyl]-6-(4-methyl-3,4-dihydro-2H-1,4-benzoxazin-6-yl)-4-oxo-4,5-dihydropyrazolo[1,5-a]pyrazin-2-carboxamide] the value was 1.35 nM.
In the case of `COc1ccc(C2(NC(=O)c3nn4cc(-c5ccc(C)c(C)c5)[nH]c(=O)c4c3C3CC3)CN(C)C2)cc1` [6-427] it was 5.15 nM; in that of `COC[C@@H](NC(=O)c1cc2c(=O)[nH]c(-c3ccc4ccccc4c3)cn2n1)c1ccccc1` [6-51], 2.65 nM.
In the case of `Cc1c(C(=O)NC(C)c2ccccc2OC(F)F)nn2c(C)c(-c3ccc4ccccc4c3)[nH]c(=O)c12` (stereo not shown) [Example 3-43, N-[1-[2-(Difluoromethoxy)phenyl]ethyl]-3,7-dimethyl-6-(2-naphthyl)-4-oxo-5H-pyrazolo[1,5-a]pyrazine-2-carboxamide] it was 3.85 nM; in that of `Cc1ccc(-c2cn3nc(C(=O)NC(c4ccc(C(F)(F)F)cc4)C(C)(C)O)c(C4CC4)c3c(=O)[nH]2)cc1C` (single isomer, unassigned) [6-459], 5.6 nM.
For the compound `Cc1cc(-c2cn3nc(C(=O)N[C@H](C)c4ccc(F)cc4)c(C4CC4)c3c(=O)[nH]2)ccc1C(F)(F)F` [Example 1-131, 3-Cyclopropyl-N-[(1R)-1-(4-fluorophenyl)ethyl]-6-[3-methyl-4-(trifluoromethyl)phenyl]-4-oxo-4,5-dihydropyrazolo[1,5-a]pyrazine-2-carboxamide], the IC50 is 5.45 nM.
For `Cc1cccc2ncc(-c3cn4nc(C(=O)N[C@@H](c5ccc(F)cc5)C(C)(C)O)c(C(C)C)c4c(=O)[nH]3)cc12` [Example 1-89, N-[(1S)-1-(4-Fluorophenyl)-2-hydroxy-2-methylpropyl]-6-(5-methylquinolin-3-yl)-4-oxo-3-(propan-2-yl)-4,5-dihydropyrazolo[1,5-a]pyrazine-2-carboxamide] the value was 1.03 nM.
In the case of `Cc1ccc(-c2cn3nc(C(=O)N[C@@H](c4ccc(F)cc4)C(C)(C)O)c(C4CC4)c3c(=O)[nH]2)cc1C(F)(F)F` [6-246] it was 5.8 nM.
For `O=C(N[C@H](CN1CCOCC1)c1ccccc1)c1cc2c(=O)[nH]c(-c3ccc4ccccc4c3)cn2n1` [Example 1-7, N-[(1S)-2-(Morpholin-4-yl)-1-phenylethyl]-6-(naphthalen-2-yl)-4-oxo-4,5-dihydropyrazolo[1,5-a]-pyrazine-2-carboxamide formic acid salt] the value was 1.7 nM.
Take `Cc1ccc(-c2cn3nc(C(=O)N[C@@H](c4ccc(F)cc4)C(F)(F)CO)c(C(F)(F)C(F)(F)F)c3c(=O)[nH]2)cc1Cl` [6-487]: the IC50 is 0.67 nM.
In the case of `Cc1ccc(-c2cn3nc(C(=O)NCC(O)C(F)(F)F)c(C4CC4)c3c(=O)[nH]2)cc1C(F)(F)F` (single isomer, unassigned) [6-244] it was 5.55 nM; in that of `Cc1ccc(-c2cn3nc(C(=O)N[C@@H](c4ccccc4)C(C)(C)O)cc3c(=O)[nH]2)cc1F` [6-640], 9.4 nM.
